Patent US10125134B2 (Mirati Therapeutics, Inc., priority 2016, dated 2018)
pIC50: −log10 of the molar value. Like-named read-outs stand apart in the source and are kept apart here.

Experiments:
KRas G12C = KRas G12C (Homo sapiens, UniProt P01116, C118S/C51S/C80L/G12C); assay: KRas G12C Modification Assay (LCMS detection of covalent adduct); type: binding; settings: normalized percent of control; tested at 5 μM concentration for 3 hours
Summary of the method: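 Covalent modification was read by reverse-phase LC/MS of intact protein after compound exposure, each reaction stopped at its time point with 25 mM acetic acid. Unmodified-protein signal, taken as percent of total, was normalised to untreated protein and reported as POC.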

[1] = tested on: NCI-H358 cells (express KRas G12C), Phospho-ERK; assay: Cellular inhibition of KRas G12C: Phospho-ERK in NCI-H358 cells; type: cell-based; settings: Homo sapiens, pERK(Thr202/Tyr204) normalized with GAPDH, NCI-H358 cells, 3 hours, read-out: IC50
Summary of the method: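 IC50 derived by 4-parameter fit of GAPDH-normalized pERK(Thr202/Tyr204) signal, as percent of DMSO control. Signal came from in-cell immunodetection with infrared secondaries after 3 h compound exposure of KRas G12C NCI-H358 cells at 0.5% DMSO.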

C=CC(=O)N1CCN(c2nc(OC[C@H]3CN(C)C4(CC4)CO3)nc3c2CCN(c2cccc4ccccc24)C3)C[C@@H]1CC#N [Example 446, 2-((S)-1-Acryloyl-4-(2-(((R)-4-methyl-7-oxa-4-azaspiro[2.5]octan-6-yl)methoxy)-7-(naphthalen-1-yl)-5,6,7,8-tetrahydropyrido[3,4-d]pyrimidin-4-yl)piperazin-2-yl)acetonitrile]
POC (KRas G12C): C (“C”>50% POC) | pIC50 ([1]; NCI-H358, 3 h): 6.00 to 10.00

C=CC(=O)N1CCN(c2nc(OCC3CCN(C)C3)nc3c2CCN(c2c(C)ccc4[nH]ncc24)C3)CC1 (stereo not shown) [Example 161, 1-[4-[7-(5-methyl-1H-indazol-4-yl)-2-[(1-methylpyrrolidin-3-yl)methoxy]-6,8-dihydro-5H-pyrido[3,4-d]pyrimidin-4-yl]piperazin-1-yl]prop-2-en-1-one]
POC (KRas G12C): C (“C”>50% POC) | pIC50 [1]: < 6.00

C=CC(=O)N1CCN(c2nc(OC[C@@H]3CCCN3C)nc3c2CCN(c2cccc4ccc(Cl)cc24)C3)CC1CC#N (stereo partly drawn) [Example 253, 2-(1-acryloyl-4-(7-(7-chloronaphthalen-1-yl)-2-(((S)-1-methylpyrrolidin-2-yl)methoxy)-5,6,7,8-tetrahydropyrido[3,4-d]pyrimidin-4-yl)piperazin-2-yl)acetonitrile]
POC (KRas G12C): C (“C”>50% POC) | pIC50 ([1]; NCI-H358, 3 h): 6.00 to 10.00

C=CC(=O)N1CCN(c2nc(OCCCN3CCCCC3)nc3c2CCN(c2cc(O)cc4ccccc24)C3)CC1 [Example 38, 1-(4-(7-(3-hydroxynaphthalen-1-yl)-2-(3-(piperidin-1-yl)propoxy)-5,6,7,8-tetrahydropyrido[3,4-d]pyrimidin-4-yl)piperazin-1-yl)prop-2-en-1-one]
POC (KRas G12C): C (“C”>50% POC) | pIC50 ([1]; NCI-H358, 3 h): 6.00 to 10.00

C=CC(=O)N1CCN(c2nc(OCCN3CCC(C)CC3)nc3c2CCN(c2cc(O)cc4ccccc24)C3)CC1 [Example 92, 1-(4-(7-(3-hydroxynaphthalen-1-yl)-2-(2-(4-methylpiperidin-1-yl)ethoxy)-5,6,7,8-tetrahydropyrido[3,4-d]pyrimidin-4-yl)piperazin-1-yl)prop-2-en-1-one]
POC (KRas G12C): C (“C”>50% POC) | pIC50 ([1]; NCI-H358, 3 h): 6.00 to 10.00

CC#CC(=O)N1CCN(c2nc(OC[C@@H]3CCCN3C)nc3c2CCN(c2cccc4cccc(C)c24)C3)C[C@@H]1CC#N [Example 455, 2-((S)-1-(but-2-ynoyl)-4-(7-(8-methylnaphthalen-1-yl)-2-(((S)-1-methylpyrrolidin-2-yl)methoxy)-5,6,7,8-tetrahydropyrido[3,4-d]pyrimidin-4-yl)piperazin-2-yl)acetonitrile]
POC (KRas G12C): C (“C”>50% POC) | pIC50 ([1]; NCI-H358, 3 h): 6.00 to 10.00

C=CC(=O)N1CCN(c2nc(OC[C@@H]3CCCN3C)nc3c2CCN(c2cccc(Cl)c2OC)C3)C[C@@H]1CC#N [Example 421, 2-((S)-1-acryloyl-4-(7-(3-chloro-2-methoxyphenyl)-2-(((S)-1-methylpyrrolidin-2-yl)methoxy)-5,6,7,8-tetrahydropyrido[3,4-d]pyrimidin-4-yl)piperazin-2-yl)acetonitrile]
POC (KRas G12C): C (“C”>50% POC) | pIC50 ([1]; NCI-H358, 3 h): 6.00 to 10.00

C=CC(=O)N1CCN(c2nc(OC[C@@H]3CCCN3C)nc3c2CCN(c2cccc4ccc(C)cc24)C3)CC1CC#N (stereo partly drawn) [Example 245, 2-[4-[7-(7-methyl-1-naphthyl)-2-[[(2S)-1-methylpyrrolidin-2-yl]methoxy]-6,8-dihydro-5H-pyrido[3,4-d]pyrimidin-4-yl]-1-prop-2-enoyl-piperazin-2-yl]acetonitrile]
POC (KRas G12C): C (“C”>50% POC) | pIC50 [1]: 6.00 to 10.00

C=CC(=O)N1CCN(c2nc(O[C@H](C)CN3CCOCC3)nc3c2CCN(c2cc(O)cc4ccccc24)C3)CC1 [Example 56, (R)-1-(4-(7-(3-hydroxynaphthalen-1-yl)-2-((1-morpholinopropan-2-yl)oxy)-5,6,7,8-tetrahydropyrido[3,4-d]pyrimidin-4-yl)piperazin-1-yl)prop-2-en-1-one]
POC (KRas G12C): C (“C”>50% POC) | pIC50 ([1]; NCI-H358, 3 h): 6.00 to 10.00

C=CC(=O)N1CCN(c2nc(OC[C@@H]3CCCN3C)nc3c2CCN(c2cccc4ccccc24)C3)CC1CC#N (stereo partly drawn) [Example 147, 2-[4-[2-[[(2S)-1-methylpyrrolidin-2-yl]methoxy]-7-(1-naphthyl)-6,8-dihydro-5H-pyrido[3,4-d]pyrimidin-4-yl]-1-prop-2-enoyl-piperazin-2-yl]acetonitrile]
POC (KRas G12C): C (“C”>50% POC) | pIC50 [1]: 6.00 to 10.00

C=CC(=O)N1CCN(c2nc(OCCCN3CCCCC3)nc3c2CCN(c2c(C)ccc4[nH]ncc24)C3)CC1 [Example 160, 1-(4-(7-(5-methyl-1H-indazol-4-yl)-2-(3-(piperidin-1-yl)propoxy)-5,6,7,8-tetrahydropyrido[3,4-d]pyrimidin-4-yl)piperazin-1-yl)prop-2-en-1-one]
POC (KRas G12C): C (“C”>50% POC) | pIC50 [1]: < 6.00

C=CC(=O)N1CCN(c2nc(OC3CCN(C)CC3)nc3c2CCN(c2cc(O)cc4ccccc24)C3)CC1 [Example 22, 1-(4-(7-(3-hydroxynaphthalen-1-yl)-2-((1-methylpiperidin-4-yl)oxy)-5,6,7,8-tetrahydropyrido[3,4-d]pyrimidin-4-yl)piperazin-1-yl)prop-2-en-1-one]
POC (KRas G12C): C (“C”>50% POC) | pIC50 ([1]; NCI-H358, 3 h): < 6.00

C=CC(=O)N1CCN(c2nc(OCCCN(C)C)nc3c2CCN(C(C)c2ccccc2)C3)CC1 (stereo not shown) [Example 25, 1-(4-(2-(3-(dimethylamino)propoxy)-7-(1-phenylethyl)-5,6,7,8-tetrahydropyrido[3,4-d]pyrimidin-4-yl)piperazin-1-yl)prop-2-en-1-one]
POC (KRas G12C): A (“A”≤25% POC) | pIC50 [1]: < 6.00

C=CC(=O)N1CCN(c2nc(OCCCN3CCN(C(C)=O)CC3)nc3c2CCN(c2cc(O)cc4ccccc24)C3)CC1 [Example 135, 1-[4-[2-[3-(4-acetylpiperazin-1-yl)propoxy]-7-(3-hydroxy-1-naphthyl)-6,8-dihydro-5H-pyrido[3,4-d]pyrimidin-4-yl]piperazin-1-yl]prop-2-en-1-one]
POC (KRas G12C): C (“C”>50% POC) | pIC50 ([1]; NCI-H358, 3 h): 6.00 to 10.00

C=CC(=O)N1CCN(c2nc(NC3CCN(C4CC4)CC3)nc3c2CCN(c2cc(O)cc4ccccc24)C3)CC1 [Example 204, 1-(4-(2-((1-cyclopropylpiperidin-4-yl)amino)-7-(3-hydroxynaphthalen-1-yl)-5,6,7,8-tetrahydropyrido[3,4-d]pyrimidin-4-yl)piperazin-1-yl)prop-2-en-1-one]
POC (KRas G12C): C (“C”>50% POC) | pIC50 [1]: < 6.00

C=CC(=O)N1CCN(c2nc(OC[C@@H]3CCCN3C)nc3c2CCN(c2cccc4cccnc24)C3)CC1CC#N (stereo partly drawn) [Example 247, 2-(1-acryloyl-4-(2-(((S)-1-methylpyrrolidin-2-yl)methoxy)-7-(quinolin-8-yl)-5,6,7,8-tetrahydropyrido[3,4-d]pyrimidin-4-yl)piperazin-2-yl)acetonitrile]
POC (KRas G12C): C (“C”>50% POC) | pIC50 ([1]; NCI-H358, 3 h): < 6.00

C=CC(=O)N1CCN(c2nc(OC[C@H]3CCCN3CCO)nc3c2CCN(c2cccc4ccccc24)C3)CC1CC#N (stereo partly drawn) [Example 304, 2-[4-[2-[[(2R)-1-(2-hydroxyethyl)pyrrolidin-2-yl]methoxy]-7-(1-naphthyl)-6,8-dihydro-5H-pyrido[3,4-d]pyrimidin-4-yl]-1-prop-2-enoyl-piperazin-2-yl]acetonitrile]
POC (KRas G12C): C (“C”>50% POC) | pIC50 ([1]; NCI-H358, 3 h): 6.00 to 10.00
